Tested on: eIF2-GTP-Met-tRNAi ternary complex
Assay: Ternary complex assay (dual luciferase, firefly/renilla ratio) in stable KLN-tTA/pBISA-DL(ATF-4) cells; HTS and hit confirmation
Format: cell-based, mouse
Parameters: Activity 10 uM / Activity 2.5 uM / Activity 5 uM: unit not given here
Settings: confirmed hits of the screen (Table 5); for Activity 2.5 uM: compound at 2.5 uM; for Activity 10 uM: compound at 10 uM; for Activity 5 uM: compound at 5 uM

Row | Structure (SMILES) | Activity 2.5 uM | Activity 10 uM | Activity 5 uM
1 | CCCC[CH2][Sn]([CH2]CCCC)[CH2]CCCC.CCCC[CH2][Sn]([CH2]CCCC)[CH2]CCCC [Compound 202674] | 4.67 |  | 
2 | CCC[CH2][Sn]([C]#[C][Sn]([CH2]CCC)([CH2]CCC)[CH2]CCC)([CH2]CCC)[CH2]CCC [Compound 203205] | 3.12 |  | 
3 | C(=P(c1ccccc1)(c1ccccc1)c1ccccc1)[P+](c1ccccc1)(c1ccccc1)c1ccccc1.[Br-].[Br-].[Cu+] [Compound 203423] | 7.7 | 3.09 | 
4 | O=C(Nc1ccc(Cl)c(Cl)c1)c1ccc(Cl)cc1 [Compound 204163] | 2.44 | 4.83 | 
5 | Cc1cc(Cl)c(Cl)cc1NC(=O)c1ccc(Cl)cc1Cl [Compound 204246] | 1.92 | 3.49 | 
6 | COc1ccccc1C(=O)N/N=C\c1ccc(Cl)cc1Cl [Compound 204386] |  | 6.0225 | 5.252
7 | CN(C)c1ccc(N=Nc2cccc([N+](=O)[O-])c2)cc1 [Compound 204512] | 2.67 | 4.16 | 
8 | Cc1ccc(N=Nc2ccc(N(C)C)cc2)cc1 [Compound 204514] | 3.6 | 4.66 | 
9 | CN(C)c1ccc(N=Nc2cccc(Cl)c2)cc1 [Compound 204515] | 2.84 | 5.31 | 
10 | O=C(Nc1ccc2ccccc2c1)c1ccccc1Cl [Compound 204548] | 2.82 | 3.99 | 
11 | CSc1ccc(NC(=O)c2ccc(Cl)cc2Cl)cc1 [Compound 204668] |  | 4.923 | 5.386
12 | O=C(COc1ccc(Cl)cc1)Nc1nccs1 [Compound 204716] | 2.2 | 3.01 | 
13 | CCc1ccc(NC(=O)Nc2ccc(Cl)c(Cl)c2)cc1 [Compound 204750] | 3.53 | 24.26 | 
14 | O=C(Nc1ccc(Cl)c(Cl)c1)OCC1CC2C=CC1C2 (centres unmarked) [Compound 204751] | 2.91 | 4.76 | 
15 | CCOC(=O)C1CCc2c(ccc3ccccc23)N1 (centres unmarked) [Compound 204931] |  | 3.539 | 3.1
16 | O=C(Nc1ccc2ccccc2c1)c1ccc(Cl)cc1 [Compound 205530] | 3.08 | 3.34 | 
17 | O=C(Nc1ccc(Br)cc1)OCC1CC2C=CC1C2 (centres unmarked) [Compound 205545] | 2.41 | 4.54 | 
18 | O=C(Nc1ccccc1F)C(Br)C(Br)c1ccccc1 (centres unmarked) [Compound 205548] | 2.94 | 4.01 | 
19 | CSc1ccc(NC(=O)Nc2cccc(F)c2)cc1 [Compound 205787] | 1.79 | 4.39 | 
20 | CSc1ccc(NC(=O)Nc2ccccc2F)cc1 [Compound 205789] | 3.99 | 7.26 | 
21 | CO[C@H]1/C=C/O[C@@]2(C)Oc3c(C)c(O)c4c(O)c(c(/C=N/N5CC(C)(C)N(Cc6ccccc6)CC5(C)C)c(O)c4c3C2=O)NC(=O)/C(C)=C\C=C\[C@H](C)[C@H](O)[C@@H](C)[C@@H](O)[C@@H](C)[C@H](OC(C)=O)[C@@H]1C [Compound 208394] |  | 13.4 | 1.5
22 | COc1ccc(N=Nc2cc(C)c(C)cc2O)cc1 [Compound 209832] |  | 4.7795 | 9.509
23 | O=[N+]([O-])c1ccc(OCc2ccc(CBr)cc2)c(Cl)c1 [Compound 212379] | 2.28 | 4.4 | 
24 | Cc1ccnc(NC(=O)Nc2cc(F)ccc2F)c1 [Compound 213710] |  | 5.091 | 4.183

Row | Structure (SMILES) | Activity 2.5 uM | Activity 10 uM | Activity 5 uM
25 | O=C(Nc1ccc(F)cc1)OCC1CC2C=CC1C2 (centres unmarked) [Compound 213848] |  | 3.5355 | 4.586
26 | O=C(Nc1ccc(CCO)cc1)Nc1ccccc1F [Compound 214004] |  | 6.0655 | 5.299
27 | O=C(Nc1ccc2ccccc2c1)c1cccc(F)c1 [Compound 214029] |  | 6.8665 | 5.245
28 | O=C(Nc1ccc2ccccc2c1)c1ccc(F)cc1 [Compound 214041] |  | 8.374 | 6.705
29 | CCCCCCOC(=O)Nc1cccc(O)c1 [Compound 222612] |  | 2.88 | 4.521
30 | O=C(O)c1ccc(/C=N\Nc2ccccc2)cc1 [Compound 227290] |  | 6.8065 | 5.935
31 | O=S(=O)(Cc1ccccc1)CC(Br)CBr (centres unmarked) [Compound 229344] | 1.28 | 4.4 | 
32 | O=C1c2ccccc2C(=O)c2c1ccc1c2CCCC1 [Compound 230359] |  | 8.3955 | 4.465
33 | CN(C)c1ccc(/C=N/Nc2ccccc2)cc1 [Compound 230415] |  | 3.3005 | 2.468
34 | [C-]#[N+]C1CCCCC1.[C-]#[N+]C1CCCCC1.[C-]#[N+]C1CCCCC1.[C-]#[N+]C1CCCCC1.[C-]#[N+]C1CCCCC1.[C-]#[N+]C1CCCCC1.[Mn] [Compound 231980] |  | 3.8 | 4.1
35 | COc1c(O)c2c(=O)cc3c4c5c(cc(=O)c6c(O)c(OC)c(CC(C)O)c(c(c1CC(C)O)c24)c65)OCO3 (centres unmarked) [Compound 234486] | 10 |  | 
36 | [Br][Ni][Br].c1ccc(CN2CCN(Cc3ccccc3)CCN(Cc3ccccc3)CCN(Cc3ccccc3)CC2)cc1 [Compound 236237] | 1.78 | 57.44 | 
37 | CN(C)c1ccc(C(=N)Cc2ccc3ccccc3n2)cc1 [Compound 240575] |  | 7.0215 | 6.23
38 | CN(C)c1ccc(C(O)Cc2ccc3ccccc3n2)cc1 (centres unmarked) [Compound 240576] |  | 6.2885 | 5.47
39 | CN(C)c1ccc(C(=O)Cc2ccc3ccccc3n2)cc1 [Compound 240577] | 2.68 | 4.63 | 
40 | CN(C)c1ccc(-c2nc3ccccn3c2N)cc1 [Compound 240724] |  | 4.257 | 3.594
41 | CN(C)c1ccc(N=Nc2ccc(C(=O)Cl)cc2)cc1 [Compound 240870] |  | 7.2395 | 6.352
42 | C=C1C(=O)OC2CCCCC3OC3C12 (centres unmarked) [Compound 258618] | 0.85 | 3.2 | 
43 | [O-][n+]1c2ccccc2nn1-c1ccc(N(CCCl)CCCl)cc1 [Compound 260514] | 1.94 | 3.87 | 
44 | CNC(=S)N/N=C/c1nccc(-c2ccccc2)c1C [Compound 262421] | 24.56 | 107.79 | 
45 | CCCCCCCCCCCCCCCC[N+](C)(C)Cc1ccccc1.[Br-] [Compound 263517] | 1.39 | 8.78 | 
46 | CC(=O)OCC1OC(n2nnc(CCl)c2CCl)C(OC(C)=O)C(OC(C)=O)C1OC(C)=O (centres unmarked) [Compound 268393] | 0.71 |  | 
47 | CN(C)c1ccc(/C=C/c2ccc3ccccc3[n+]2[O-])cc1 [Compound 268776] |  | 5.5035 | 5.767
48 | Cc1cc(OC(=O)Nc2ccc(Cl)c([N+](=O)[O-])c2)c(Cl)cc1Br [Compound 270151] | 1.24 | 3.16 | 

— patent publication US9932300B2, “N,N′-diarylurea compounds and N,N′-diarylthiourea compounds as inhibitors of translation initiation” (President and Fellows of Harvard College, priority 2009, dated 2018)
